From patent US9326513B2, “Fungicidal compositions” (Syngenta Participations AG, priority 2011, dated 2016) come the findings set out here.

Common to all, as to format: cell-based
Test [1] relates to Monographella nivalis (syn. Microdochium nivale, Fusarium nivale). Kind of test: Monographella nivalis (snow mould, foot rot of cereals), PDB microtiter plate, visual after 72 hrs.
The next test relates to Botrytis cinerea. Kind of test: Botrytis cinerea (gray mould), PDB microtiter plate, visual after 72 hrs.
Another test deals with Septoria tritici. Kind of test: Septoria tritici (leaf blotch), PDB microtiter plate, visual after 72 hrs. To be noted: single compound.
Setting [2] is: Monographella nivalis, applied alone, 0.625 ppm.
[3] abbreviates: Monographella nivalis, applied alone, 1.25 ppm.
The mark [4] stands for this setting: Monographella nivalis, applied alone, 2.5 ppm.
Where [5] appears, read: Monographella nivalis, applied alone, 5 ppm.
Setting [6] is: Monographella nivalis, applied alone, rate 0.15625 ppm.
Where [7] appears, read: Monographella nivalis, applied alone, rate 0.3125 ppm.
The mark [8] stands for this setting: Monographella nivalis, applied alone, rate 0.625 ppm.
Where [9] appears, read: Monographella nivalis, applied alone, rate 1.25 ppm.
The mark [10] stands for this setting: Botrytis cinerea, alone, rate 0.625 ppm.
The mark [11] stands for this setting: Botrytis cinerea, alone, rate 1.25 ppm.
Where [12] appears, read: Botrytis cinerea, alone, rate 2.5 ppm, read-out: Activity (%).
[13] abbreviates: applied alone, rate 0.15625 ppm.
[14] abbreviates: Monographella nivalis, applied alone, rate 2.5 ppm.
[15] abbreviates: Monographella nivalis, single compound, rate 5 ppm.
[16] abbreviates: Botrytis cinerea, alone, rate 5 ppm, read-out: Activity (%).
[17] abbreviates: Botrytis cinerea, alone, rate 10 ppm, read-out: Activity (%).

Where two headings read alike, the source gives them in different places.

With `CC(C)(C)[C@@H](O)[C@@H](Cc1ccc(Cl)cc1)n1cncn1` (racemic) [Paclobutrazol], the inhibition at 0.625 ppm turned out to be 0% in test [1] (setting [2]); 0% in test [1] (setting [8]); 0% in the test with Botrytis cinerea (setting [10]); 0% with Septoria tritici (Zymoseptoria tritici, 0.625 ppm). For the same molecule, the inhibition at 1.25 ppm in test [1] (setting [3]) is 0%; in test [1] (setting [9]), 0%; in the test with Botrytis cinerea (setting [11]), 0%; in the test on Botrytis cinerea (Botrytis cinerea, single compound, rate 1.25 ppm), 0%; in the test with Septoria tritici (Zymoseptoria tritici, 1.25 ppm) it was 0%. The inhibition at 2.5 ppm in test [1] (setting [4]) worked out at 0%; in the test with Botrytis cinerea (setting [12]) it was 0%; in the test with Botrytis cinerea (Botrytis cinerea, single compound, rate 2.5 ppm, read-out: Activity (%)), 0%. Besides, the inhibition at 5 ppm in test [1] (setting [5]) was 0%; in the test with Botrytis cinerea (Botrytis cinerea, single compound, rate 5 ppm, read-out: Activity (%)) it was 70%; with Septoria tritici (Zymoseptoria tritici, 5 ppm), 70%. Besides, the inhibition at 10 ppm was found to be 0% in test [1] (Monographella nivalis, applied alone, 10 ppm) and 70% in the test with Septoria tritici (Zymoseptoria tritici, 10 ppm). In addition, the inhibition at 0.15625 ppm in test [1] (setting [6]) is 0%; in the test with Septoria tritici (Zymoseptoria tritici, 0.15625 ppm), 0%. Moreover, the inhibition at 0.3125 ppm in test [1] (setting [7]) is 0%; in the test on Septoria tritici (Zymoseptoria tritici, 0.3125 ppm), 20%. In addition, the “Activity (%)” value with Septoria tritici (5 ppm) came out at 50%.

Consider `CO/C=C(/C(=O)OC)c1ccccc1Oc1cc(Oc2ccccc2C#N)ncn1` [Azoxystrobin], for which the “Activity (%)” value in test [1] (applied alone, 0.00625 ppm) was 50%; in test [1] (applied alone, rate 0.0015625 ppm), 0%; in test [1] (applied alone, rate 0.003125 ppm), 20%; in test [1] (applied alone, rate 0.00625 ppm), 70%; in the test on Botrytis cinerea (alone, rate 0.025 ppm), 0%; in the test with Botrytis cinerea (alone, rate 0.05 ppm), 0%. Further, the “Activity (%)” value in the test on Botrytis cinerea (alone, rate 0.1 ppm) stood at 0%; with Botrytis cinerea (alone, rate 0.125 ppm), 0%; with Botrytis cinerea (alone, rate 0.2 ppm), 20%; in the test on Botrytis cinerea (alone, rate 0.25 ppm), 20%.

`COCCOCc1nc(C(F)(F)F)ccc1C(=O)C1=C(O)C2CCC(C2)C1=O` (stereo not shown) [Bicyclopyrone]: the “Activity (%)” value in test [1] (applied alone, rate 0.078125 ppm) is reported as 0%; in test [1] (setting [13]), 0%; in test [1] (applied alone, rate 0.3125 ppm), 0%; with Botrytis cinerea (alone, rate 1.25 ppm), 0%; in the test on Botrytis cinerea (alone, rate 2.5 ppm), 0%; in the test on Botrytis cinerea (alone, rate 5 ppm), 0%.

With `[Cu+2].[OH-].[OH-]` [Copper hydroxide], the “Activity (%)” value was 0% in test [1] (setting [13]); 0% in test [1] (applied alone, rate 0.3125 ppm); 0% in test [1] (applied alone, rate 0.625 ppm); 0% in test [1] (applied alone, rate 1.25 ppm); 0% in test [1] (applied alone, rate 2.5 ppm); 0% in test [1] (applied alone, rate 5 ppm). Moreover, the “Activity (%)” value in the test on Botrytis cinerea (alone, rate 1.25 ppm) was determined as 0%; in the test on Botrytis cinerea (alone, rate 2.5 ppm) it was 0%; in the test with Botrytis cinerea (alone, rate 5 ppm) it was 0%.

In the test on Septoria tritici (Zymoseptoria tritici, 0.125 ppm), `O=C(NCCc1ncc(C(F)(F)F)cc1Cl)c1ccccc1C(F)(F)F` [Fluopyram] displayed an inhibition at 0.125 ppm of 0%. Further, the inhibition at 0.25 ppm with Septoria tritici (Zymoseptoria tritici, 0.25 ppm, read-out: Activity (%)) is 50%.

On to `Cn1cc(C(=O)Nc2ccccc2-c2cc(F)c(F)c(F)c2)c(C(F)F)n1` [Fluxapyroxad], for which the “Activity (%)” value in the test with Botrytis cinerea (alone, rate 0.015625 ppm) amounted to 20%; in the test on Botrytis cinerea (alone, rate 0.0625 ppm), 50%; in the test on Botrytis cinerea (alone, rate 0.125 ppm), 70%; in the test on Septoria tritici (0.015625 ppm), 0%; in the test with Septoria tritici (0.03125 ppm) it was 0%; in the test with Septoria tritici (0.0625 ppm), 20%.

The molecule `CP(=O)(O)CCC(N)C(=O)O` (stereo not shown) [Glufosinate] had an inhibition at 0.3125 ppm in test [1] (setting [7]) of 0%. In test [1] (setting [8]), this molecule came in with an inhibition at 0.625 ppm of 0%. The molecule also showed an inhibition at 1.25 ppm in test [1] (setting [9]) of 0%. The inhibition at 2.5 ppm stood at 0% in test [1] (setting [14]) and 0% with Botrytis cinerea (Botrytis cinerea, read-out: Activity (%), alone, rate 2.5 ppm). Further, the inhibition at 5 ppm in test [1] (setting [15]) amounted to 0%; with Botrytis cinerea (Botrytis cinerea, read-out: Activity (%), alone, rate 5 ppm), 0%. Besides, the inhibition at 10 ppm in the test on Botrytis cinerea (Botrytis cinerea, read-out: Activity (%), alone, rate 10 ppm) amounted to 0%. The inhibition at 20 ppm in the test with Botrytis cinerea (Botrytis cinerea, read-out: Activity (%), alone, rate 20 ppm) was determined as 0%.

As for `CC(C)C1C2CCC1c1c(NC(=O)c3cn(C)nc3C(F)F)cccc12` (stereo not shown) [Isopyrazam], the “Activity (%)” value in the test with Septoria tritici (0.015625 ppm) is reported as 0%; with Septoria tritici (0.03125 ppm), 20%.

For `CS(=O)(=O)c1ccc(C(=O)C2C(=O)CCCC2=O)c([N+](=O)[O-])c1` [Mesotrione], the inhibition at 2.5 ppm (in test [1] (setting [4]); in test [1] (setting [14]); in the test with Botrytis cinerea (setting [12])) was 0% each time. Besides, the inhibition at 5 ppm (in test [1] (setting [5]); in test [1] (setting [15]); with Botrytis cinerea (setting [16])) was 0% in each case. Besides, the inhibition at 0.078125 ppm in test [1] (Monographella nivalis, applied alone, rate 0.078125 ppm) came to 0%. Also, the inhibition at 0.15625 ppm in test [1] (setting [6]) was determined as 0%. In test [1] (setting [7]), the inhibition at 0.3125 ppm stood at 0%. In addition, the inhibition at 0.625 ppm (in test [1] (setting [8]); in the test on Botrytis cinerea (setting [10])) was 0% throughout. Besides, the inhibition at 1.25 ppm (in test [1] (setting [9]); in the test with Botrytis cinerea (setting [11])) was 0% each time. Moreover, the inhibition at 10 ppm in test [1] (Monographella nivalis, single compound, rate 10 ppm) came to 0%; in the test on Botrytis cinerea (setting [17]) it was 0%. Besides, the inhibition at 20 ppm in test [1] (Monographella nivalis, single compound, rate 20 ppm) was found to be 0%.

As to `Cc1nn(C)c(F)c1C(=O)Nc1ccccc1C(C)CC(C)C` (stereo not shown) [Penflufen], the “Activity (%)” value in test [1] (applied alone, 0.5 ppm) is given as 0%; in test [1] (applied alone, 1 ppm), 20%; in test [1] (applied alone, rate 0.5 ppm), 0%; in test [1] (applied alone, rate 1 ppm), 20%; with Septoria tritici (0.125 ppm), 0%; in the test with Septoria tritici (0.25 ppm), 20%. The “Activity (%)” value in the test on Septoria tritici (0.5 ppm) was found to be 70%.

For `CO/C=C(/C(=O)OC)c1ccccc1COc1cccc(C(F)(F)F)n1` [Picoxystrobin], the “Activity (%)” value in the test with Botrytis cinerea (alone, rate 0.25 ppm) came out at 50%; in the test with Botrytis cinerea (alone, rate 0.5 ppm), 50%; in the test with Botrytis cinerea (alone, rate 1 ppm), 50%; with Botrytis cinerea (alone, rate 2 ppm) it was 50%; in the test on Septoria tritici (0.015625 ppm), 70%; with Septoria tritici (0.03125 ppm) it was 90%.

For `COC(=O)N(OC)c1ccccc1COc1ccn(-c2ccc(Cl)cc2)n1` [Pyraclostrobin], in test [1] (Monographella nivalis, applied alone, rate 0.0015625 ppm), the inhibition at 0.0015625 ppm worked out at 0%. This molecule also displayed an inhibition at 0.003125 ppm in test [1] (Monographella nivalis, applied alone, rate 0.003125 ppm) of 0%. In addition, the inhibition at 0.00625 ppm in test [1] (Monographella nivalis, single compound, rate 0.00625 ppm) was found to be 0%. In test [1] (Monographella nivalis, single compound, rate 0.0125 ppm), this molecule came in with an inhibition at 0.0125 ppm of 50%. The inhibition at 0.025 ppm with Botrytis cinerea (Botrytis cinerea, alone, rate 0.025 ppm) is 0%. This molecule yielded an inhibition at 0.05 ppm in the test on Botrytis cinerea (Botrytis cinerea, alone, rate 0.05 ppm) of 0%. In addition, the inhibition at 0.1 ppm in the test with Botrytis cinerea (Botrytis cinerea, alone, rate 0.1 ppm) amounted to 0%. Besides, the inhibition at 0.2 ppm with Botrytis cinerea (Botrytis cinerea, alone, rate 0.2 ppm) is 20%. In the test on Botrytis cinerea (Botrytis cinerea, alone, rate 0.25 ppm), the inhibition at 0.25 ppm was determined as 50%. This molecule also showed an inhibition at 2 ppm in the test on Botrytis cinerea (Botrytis cinerea, alone, rate 2 ppm) of 70%.

For the molecule `CN1COCN(Cc2cnc(Cl)s2)/C1=N\[N+](=O)[O-]` [Thiamethoxam], the inhibition at 0.3125 ppm in test [1] (setting [7]) is 0%. Moreover, the inhibition at 0.625 ppm (in test [1] (setting [8]); in the test with Botrytis cinerea (setting [10])) was 0% in each case. Moreover, the inhibition at 2.5 ppm (in test [1] (setting [14]); in the test on Botrytis cinerea (setting [12])) was 0% in each case. This molecule also displayed an inhibition at 5 ppm in test [1] (Monographella nivalis, applied alone, rate 5 ppm) of 0%. Also, the inhibition at 1.25 ppm in the test with Botrytis cinerea (setting [11]) came to 0%.

As for `CCOC(=O)C1CC(=O)C(=C(O)C2CC2)C(=O)C1` (stereo not shown) [Trinexapacethyl], the inhibition at 0.625 ppm in test [1] (setting [2]) and in test [1] (setting [8]) was 0% in each case. Also, the inhibition at 1.25 ppm (in test [1] (setting [3]); in test [1] (setting [9]); in the test with Botrytis cinerea (setting [11])) was 0% each time. The inhibition at 2.5 ppm (in test [1] (setting [4]); in test [1] (setting [14]); with Botrytis cinerea (setting [12])) was 0% each time. Moreover, the inhibition at 5 ppm (in test [1] (setting [5]); in the test on Botrytis cinerea (setting [16])) was 0% throughout. The same molecule gave an inhibition at 0.12625 ppm in test [1] (Monographella nivalis, applied alone, rate 0.12625 ppm) of 0%. The inhibition at 0.3125 ppm in test [1] (setting [7]) amounted to 0%. In addition, in the test with Botrytis cinerea (setting [17]), the inhibition at 10 ppm came to 0%. Besides, in the test on Botrytis cinerea (Botrytis cinerea, alone, rate 20 ppm, read-out: Activity (%)), the inhibition at 20 ppm was determined as 0%.

`CC/C=C\CC1=C(C)CCC1=O` [cis-Jasmone]: the “Activity (%)” value is 0% in test [1] (applied alone, 0.625 ppm); 0% in test [1] (applied alone, 1.25 ppm); 0% in test [1] (applied alone, 2.5 ppm); 0% in test [1] (applied alone, 5 ppm); 0% in test [1] (setting [13]); 0% in test [1] (applied alone, rate 0.3125 ppm). Further, the “Activity (%)” value turned out to be 0% in test [1] (applied alone, rate 0.625 ppm); 0% in test [1] (applied alone, rate 1.25 ppm); 0% in the test with Botrytis cinerea (alone, rate 0.625 ppm); 0% in the test with Botrytis cinerea (alone, rate 1.25 ppm); 0% with Botrytis cinerea (alone, rate 2.5 ppm); 0% in the test on Botrytis cinerea (alone, rate 5 ppm).

For Abamectin, the “Activity (%)” value in test [1] (applied alone, 5 ppm) turned out to be 0%; in test [1] (applied alone, 10 ppm) it was 0%; in test [1] (applied alone, 20 ppm) it was 50%; in test [1] (setting [13]) it was 0%; in test [1] (applied alone, rate 0.3125 ppm) it was 0%; in test [1] (applied alone, rate 0.625 ppm), 0%. In addition, the “Activity (%)” value is reported as 0% in test [1] (applied alone, rate 1.25 ppm); 0% in test [1] (applied alone, rate 2.5 ppm); 0% with Botrytis cinerea (alone, rate 1.25 ppm); 0% in the test with Botrytis cinerea (alone, rate 2.5 ppm); 0% in the test with Botrytis cinerea (alone, rate 5 ppm); 0% in the test on Botrytis cinerea (alone, rate 10 ppm). Also, the “Activity (%)” value in the test on Botrytis cinerea (alone, rate 20 ppm) is 0%.
